{"source": "PubChem BioAssay AID743350", "about": "(Broad Institute, 2014)", "note": "Calls of active or inactive are those of the source. No rule for the calls is given here."}
{"test_system": "M. tuberculosis wild type, biotin-free medium, growth", "assay": "growth inhibition of wild-type M. tuberculosis, biotin-free medium, single point, dry powder (AID 743350)"}
{"smiles": "CN1c2ccc(-c3cccc(F)c3)cc2[C@@H]2[C@@H](CCN2C(=O)c2ccc3c(c2)OCO3)[C@H]1CO", "IC90": "> 50 µM (inactive)"}
{"smiles": "CN1c2ccc(-c3cccc(F)c3)cc2[C@H]2[C@H](CCN2C(=O)CCCCCCC(=O)O)[C@H]1CO", "IC90": "> 50 µM (inactive)"}
{"smiles": "CC(C)NC(=O)N1CC[C@@H]2[C@@H](CO)N(C)c3ccc(-c4ccc(F)cc4)cc3[C@@H]21", "IC90": "> 50 µM (inactive)"}
{"smiles": "CC(=O)c1ccc(N2CCN(C(=O)c3ccccc3F)CC2)cc1", "IC90": "> 50 µM (inactive)"}
{"smiles": "CN1c2ccc(-c3ccc(F)cc3)cc2[C@H]2[C@H](CCN2C(=O)Cc2cccnc2)[C@H]1CO", "IC90": "> 50 µM (inactive)"}
{"smiles": "CN1c2ccc(-c3cccc(F)c3)cc2[C@H]2[C@H](CCN2C(=O)Nc2ccccc2F)[C@H]1CO", "IC90": "> 50 µM (inactive)"}
{"smiles": "COc1ccc(NC(=O)N2CC[C@@H]3[C@@H](CO)N(C)c4ccc(-c5cccc(F)c5)cc4[C@@H]32)cc1", "IC90": "> 50 µM (inactive)"}
{"smiles": "CCCNC(=O)N1CC[C@@H]2[C@@H](CO)N(C)c3ccc(-c4ccc(F)cc4)cc3[C@@H]21", "IC90": "> 50 µM (inactive)"}
{"smiles": "CN1c2ccc(-c3ccc(F)cc3)cc2[C@H]2[C@H](CCN2C(=O)Nc2ccc(F)cc2)[C@H]1CO", "IC90": "> 50 µM (inactive)"}
{"smiles": "CNS(=O)(=O)c1ccc(N2CCN(C(=O)c3ccc4c(c3)OCO4)CC2)cc1", "IC90": "> 50 µM (inactive)"}
{"smiles": "CN1c2ccc(-c3cccc(F)c3)cc2[C@H]2[C@H](CCN2C(=O)Cc2ccccc2)[C@H]1CO", "IC90": "> 50 µM (inactive)"}
{"smiles": "CN1c2ccc(-c3cccc(F)c3)cc2[C@H]2[C@H](CCN2C(=O)Cc2cccnc2)[C@H]1CO", "IC90": "> 50 µM (inactive)"}
{"smiles": "COc1ccc(NC(=O)N2CC[C@@H]3[C@@H](CO)N(C)c4ccc(-c5ccc(F)cc5)cc4[C@@H]32)cc1", "IC90": "> 50 µM (inactive)"}
{"smiles": "CN1c2ccc(-c3cccc(F)c3)cc2[C@H]2[C@H](CCN2C(=O)CCCCCCN)[C@H]1CO", "IC90": "> 50 µM (inactive)"}
{"smiles": "CN(C)C(=O)c1ccc(N2CCN(C(=O)c3ccc4c(c3)OCO4)CC2)cc1", "IC90": "> 50 µM (inactive)"}
{"smiles": "CNC(=O)c1ccc(N2CCN(C(=O)c3ccc4c(c3)OCO4)CC2)cc1", "IC90": "> 50 µM (inactive)"}
{"smiles": "COc1ccccc1NC(=O)N1CC[C@@H]2[C@@H](CO)N(C)c3ccc(-c4ccc(F)cc4)cc3[C@@H]21", "IC90": "> 50 µM (inactive)"}
{"smiles": "CN1c2ccc(-c3cccc(F)c3)cc2[C@H]2[C@H](CCN2C(=O)c2ccc3c(c2)OCO3)[C@@H]1CO", "IC90": "> 50 µM (inactive)"}
{"smiles": "COC(=O)CCCCCCC(=O)N1CC[C@@H]2[C@@H](CO)N(C)c3ccc(-c4cccc(F)c4)cc3[C@@H]21", "IC90": "> 50 µM (inactive)"}
{"smiles": "COc1ccccc1C(=O)N1CCN(c2ccc(C(C)=O)cc2)CC1", "IC90": "> 50 µM (inactive)"}
{"smiles": "COc1cccc(NC(=O)N2CC[C@@H]3[C@@H](CO)N(C)c4ccc(-c5cccc(F)c5)cc4[C@@H]32)c1", "IC90": "> 50 µM (inactive)"}
{"smiles": "CCC(=O)N1CC[C@@H]2[C@@H](CO)N(C)c3ccc(-c4ccc(F)cc4)cc3[C@@H]21", "IC90": "> 50 µM (inactive)"}
{"smiles": "CC(=O)c1ccc(N2CCN(C(=O)c3ccc4c(c3)OCO4)[C@H](C)C2)cc1", "IC90": "27.3 µM"}
{"smiles": "CN1c2ccc(-c3cccc(F)c3)cc2[C@@H]2[C@@H](CCN2C(=O)c2ccc3c(c2)OCO3)[C@@H]1CO", "IC90": "> 50 µM (inactive)"}
{"smiles": "CC(=O)c1ccc(N2CCN(C(=O)c3ccc4c(c3)OCO4)CC2)cc1", "IC90": "39.7 µM"}
{"smiles": "CC(=O)c1ccc(NCCNC(=O)c2ccc3c(c2)OCO3)cc1", "IC90": "> 50 µM (inactive)"}
{"smiles": "CC(=O)c1ccc(N2CC3(CN(C(=O)c4ccc5c(c4)OCO5)C3)C2)cc1", "IC90": "> 50 µM (inactive)"}
{"smiles": "COc1ccccc1NC(=O)N1CC[C@@H]2[C@@H](CO)N(C)c3ccc(-c4cccc(F)c4)cc3[C@@H]21", "IC90": "> 50 µM (inactive)"}
{"smiles": "CC(=O)c1ccc(N2CCN(C(=O)c3ccccc3Cl)CC2)cc1", "IC90": "> 50 µM (inactive)"}
{"smiles": "COCC(=O)N1CC[C@@H]2[C@@H](CO)N(C)c3ccc(-c4cccc(F)c4)cc3[C@@H]21", "IC90": "> 50 µM (inactive)"}
{"smiles": "CCCCCCCC(=O)N1CC[C@@H]2[C@@H](CO)N(C)c3ccc(-c4cccc(F)c4)cc3[C@@H]21", "IC90": "> 50 µM (inactive)"}
{"smiles": "CN1c2ccc(-c3ccc(F)cc3)cc2[C@H]2[C@H](CCN2C(=O)Cc2ccccn2)[C@H]1CO", "IC90": "> 50 µM (inactive)"}
{"smiles": "CC(C)NC(=O)N1CC[C@@H]2[C@@H](CO)N(C)c3ccc(-c4cccc(F)c4)cc3[C@@H]21", "IC90": "> 50 µM (inactive)"}
{"smiles": "CN1c2ccc(-c3ccc(F)cc3)cc2[C@H]2[C@H](CCN2C(=O)Nc2cc(F)ccc2F)[C@H]1CO", "IC90": "> 50 µM (inactive)"}
